Test results from patent US4269831A, “Topical dermatological method of use of an androstenopyrazole” (priority 1979, dated 1981).

Assays:
[1] = system: androgen-stimulated flank organ; assay: Related experiment: androgen-stimulated flank organ in mature female and castrated immature male hamsters; type: in vivo; conditions: 5 to 25 micrograms per flank organ
Excerpt: As shown by Table I the diameters and the wet weights of the flank organs were reduced at a dose of 5 micrograms per flank organ per day.

[2] = system: male hamster flank organ hair; assay: Rate of flank organ hair growth by 35S-cystine pulse labelling (Table V); type: in vivo, Syrian golden hamsters; conditions: right flank organ, 5 microliters 0.1% solution daily for 14 days; mean ± SE, n=8
Method: In a second test all hair was clipped from the flank organs of 8 male Syrian golden hamsters having a mean body weight of 116 g. on the first day of the study. The hamsters were medicated daily with 5 microliters of ethanol on the left flank organ and 5 microliters of a 0.1% solution of the compound of Formula I in ethanol on the right flank organ for 14 consecutive days. On days 4, 8 and 12 each hamster was injected subcutaneously with 30 microcuries of ^35 S-cystine (0.72 nmole) dissolved in ethanol-saline (0.1 ml., 1:9, v/v). On day 15 several hairs were plucked from each flank organ. The hairs were exposed to X-ray film for 4 weeks. The distances between the radioactive sites and the hair resulting from the three pulses of ^35 S-cystine were measured and the daily rate of hair-growth was determined. As shown by Table V the rate of hair growth was reduced after 12 days of treatment.

[3] = system: flank organ of mature male Syrian golden hamsters; assay: Topical antiandrogenic activity in mature male hamsters, both flank organs medicated (Table I); type: in vivo; conditions: mean, n=8
Excerpt: (§1) Each flank organ of mature male Syrian golden hamsters having a mean initial body weight of 105 g. was medicated topically with the compound of Formula I dissolved in ethanol (5 microliters) for twenty-one days. Flank organ hair was clipped three times per week to facilitate application. On the day following the last medication the hamsters were killed with an overdose of sodium pentobarbital. The flank organ parameters and the weights of seminal vesicles, adrenals and thymus glands were determined. Flank organ diameter was measured parallel to the breadth of the hamster with vernier calipers. Wet weights were obtained on flank organs excised around the periphery of the pigmented area. The topical activity of the compound of Formula I was also compared with that of 17β-hydroxy-17α-propylandrost-4-en-3-one, an antiandrogen, and hydrocortisone. In this experiment the right flank organ was treated with the test compound while vehicle-treated left flank organ served as control. […] In addition, the individual characteristics of the flank organ, elevation (thickness relative to adjacent skin), area, hair pigment, skin pigment and hair growth were all scored separately on a scale of 0 to 4.

[4] = system: flank organ of mature male Syrian golden hamsters; assay: Topical comparison in mature male hamsters, right flank organ treated, left flank organ vehicle (Tables II, III); type: in vivo; conditions: for Flank organ Diameter, RFO / Flank organ Weight, RFO / Flank organ Development, RFO (median score): treated right flank organ; for Flank organ Diameter, RFO / Flank organ Weight, RFO: mean; for Flank organ Diameter, RFO / Flank organ Weight, RFO / Flank organ Development, RFO (median score) / Flank Organ (Mean Score) Area / Flank Organ (Mean Score) Elevation / Flank Organ (Mean Score) Hair Growth / Flank Organ (Mean Score) Hair Pigmentation / Flank Organ (Mean Score) Skin Pigmentation: n=7; for Flank organ Development, RFO (median score): scale 0 to 4 (0 barely visible, 4 as in mature male); for Flank Organ (Mean Score) Area / Flank Organ (Mean Score) Elevation / Flank Organ (Mean Score) Hair Growth / Flank Organ (Mean Score) Hair Pigmentation / Flank Organ (Mean Score) Skin Pigmentation: RFO, scale 0 to 4
Excerpt: as §1

[5] = system: adrenalectomized Sprague-Dawley rats; assay: Systemic glucocorticoid activity in the adrenalectomized rat, oral; type: in vivo; design: Liver glycogen: unit not given here; conditions: five consecutive days; for Liver glycogen: control 1.82±0.03; for Thymus weights: control 638±50
Method: A solution of the compound of Formula I in ethanolcottonseed oil (1:9, v/v) was administered orally to adrenalectomized Sprague-Dawley rats having a mean initial body weight of 188 g. (10 rats per group) for five consecutive days. Adrenalectomized rats receiving vehicle alone served as controls. Seven hours after the final medication the rats were killed and the thymus glands were excised and weighed. A portion of the liver was excised, frozen and digested in hot aqueous potassium hydroxide (30%). Liver glycogen was then determined. In this test the compound of Formula I caused thymolysis and liver glycogen deposition. The thymus weights at doses of 10 and 30 mg./kg. were 359±31 and 167±20 mg., respectively,in the medicated rats compared with 638±50 mg. in the control rats.

[6] = 1 μg/flank organ/day topical for 21 days
[7] = 5 μg/flank organ/day topical for 21 days
[8] = 25 μg/flank organ/day topical for 21 days
[9] = 125 μg/flank organ/day topical for 21 days

CC#C[C@]1(O)CC[C@H]2[C@@H]3C[C@H](C)C4=Cc5[nH]ncc5C[C@]4(C)[C@H]3CC[C@@]21C [Compound of Formula I, 17β-Hydroxy-6α-methyl-17α-propynyl-4-androsteno[3,2-c]-pyrazole]
Inhibition of androgen-stimulated flank organ parameters [1]: effective inhibitor of androgen-stimulated flank organ parameters | Systemic effects [1]: without any systemic effects | Rate of Hair Growth, First Interval (Day 4-8) [2]: .504 ± .014 mm/day | Rate of Hair Growth, Second Interval (Day 9-12) [2]: .566 ± .014 mm/day | Flank Organ Diameter [3, 6]: 5.7 mm | Flank Organ Wet Weight [3, 6]: 46.5 mg | Organ Weights: Adrenal [3, 6]: 26.7 mg | Organ Weights: Seminal Vesicles [3, 6]: 288.3 mg | Organ Weights: Thymus [3, 6]: 57.1 mg | Flank Organ Diameter [3, 7]: 4.8 mm | Flank Organ Wet Weight [3, 7]: 36.4 mg | Organ Weights: Adrenal [3, 7]: 25.5 mg | Organ Weights: Seminal Vesicles [3, 7]: 277.6 mg | Organ Weights: Thymus [3, 7]: 53.2 mg | Flank Organ Diameter [3, 8]: 4.7 mm | Flank Organ Wet Weight [3, 8]: 33.4 mg | Organ Weights: Adrenal [3, 8]: 25.5 mg | Organ Weights: Seminal Vesicles [3, 8]: 270.3 mg | Organ Weights: Thymus [3, 8]: 53.7 mg | Flank Organ Diameter [3, 9]: 4.8 mm | Flank Organ Wet Weight [3, 9]: 30.7 mg | Organ Weights: Adrenal [3, 9]: 21.0 mg | Organ Weights: Seminal Vesicles [3, 9]: 267.3 mg | Organ Weights: Thymus [3, 9]: 52.8 mg | Flank organ Diameter, RFO ([4]; 5 μg/RFO for 21 days): 5.2 mm | Flank organ Weight, RFO ([4]; 5 μg/RFO for 21 days): 35.9 mg | Flank organ Development, RFO (median score) ([4]; 5 μg/RFO for 21 days): 3 | Flank organ Diameter, RFO ([4]; 50 μg/RFO for 21 days): 5.0 mm | Flank organ Weight, RFO ([4]; 50 μg/RFO for 21 days): 33.2 mg | Flank organ Development, RFO (median score) ([4]; 50 μg/RFO for 21 days): 3 | Dose response of flank organ inhibition ([4]; 5 and 50 μg/RFO topical for 21 days): flat dose response curve | Flank Organ (Mean Score) Area ([4]; 5 μg/flank organ for 21 days): 3.3 | Flank Organ (Mean Score) Elevation ([4]; 5 μg/flank organ for 21 days): 3.1 | Flank Organ (Mean Score) Hair Growth ([4]; 5 μg/flank organ for 21 days): 1.4 | Flank Organ (Mean Score) Hair Pigmentation ([4]; 5 μg/flank organ for 21 days): 3.6 | Flank Organ (Mean Score) Skin Pigmentation ([4]; 5 μg/flank organ for 21 days): 3.3 | Flank Organ (Mean Score) Area ([4]; 50 μg/flank organ for 21 days): 3.0 | Flank Organ (Mean Score) Elevation ([4]; 50 μg/flank organ for 21 days): 2.6 | Flank Organ (Mean Score) Hair Growth ([4]; 50 μg/flank organ for 21 days): 0 | Flank Organ (Mean Score) Hair Pigmentation ([4]; 50 μg/flank organ for 21 days): 3.0 | Flank Organ (Mean Score) Skin Pigmentation ([4]; 50 μg/flank organ for 21 days): 3.1 | Liver glycogen ([5]; 10 mg./kg. oral): 5.7±1.1 | Thymus weights ([5]; 10 mg./kg. oral): 359 ± 31 mg | Liver glycogen ([5]; 30 mg./kg. oral): 10.9±1.2 | Thymus weights ([5]; 30 mg./kg. oral): 167 ± 20 mg
